Patent publication US4916147A, “3-[(4-Aroyl) phenoxy (or phenylthio)]-cyclopentanecarboxylic acid analogues and treatment of cerebral edema therewith” (Ono Pharmaceutical Co., Ltd., priority 1985, dated 1990)
Each block holds one compound with its values, some of them ahead of it.

Assays:
[1] = test system: organ slice of cat cerebral cortex; assay: Inhibition test on cerebral edema using organ slice of cat cerebral cortex (NaHCO3-stimulated swelling); type: cell-based; settings: Felis catus, 50 min, cat cerebral cortex slices, 50 minutes at 37° C., pH 7.4, swelling stimulated with NaHCO3; for IC50: read-out: inhibitory activity of cerebral edema (IC50); for inhibition at 0.01 µM: 10^-8 M, read-out: a percentage of inhibition of swelling at 10^-8 M (%)
Description: THE INHIBITION TEST ON CEREBRAL EDEMA USING ORGAN SLICE OF CAT CEREBRAL CORTEX
The test was carried out by the method described in Journal of Medicinal Chemistry, Vol. 25 (No. 5), 567 (1982).
That is, brain was isolated from a cat weighing 2~4 kg, slices of about 1 mm in thickness was prepared, the white matter substance was removed, and the gray matter substance (100~150 mg a test) was used for a sample. The sample was added to the following incubation medium and incuvated for 50 minutes at 37° C. After the incubation, the sample was immediately weighed again to determine the swelling weight of the sample.
(osmotic pressure, 280~290 mOsm/l)
1. Hepes Buffer (pH 7.4). . . 2.365 ml
adjusted to pH 7.4 by NaOH
2. test compounds [dissolved in the presence of tris(hydroxymethyl) aminomethane] or water. . . 0.01 ml
3. 0.2M NaHCO3 (dissolved by Hepes Buffer, giving the final concentration of 10 mM in medium) or Hepes Buffer. . . 0.125 ml
The test was carried out by using NaHCO3 as a stimulating agent of swelling.
(A) A percentage of swelling when a slice sample was added to incubation medium comprising Hepes Buffer, water and NaHCO3 (defined as maximum of swelling).
(B) A percentage of swelling when a slice sample was added to incubation medium comprising Hepes Buffer and water (defined as maximum inhibition of swelling).
(C) A percentage of swelling when a slice sample was added to incubation medium comprising Hepes Buffer, the test compounds in various concentrations and NaHCO3.
Above-mentioned (A), (B) and (C) were determined. Inhibition percentage of the test compounds was caliculated by the following equation: [formula] IC50 value was determined by dose-response curve as a concentration in which inhibition percentage was 50.
The results are shown Table I. And further, percentages of swelling of (C) was counted, in the case that concentration of test compound of (C) was 10^-8 M, and inhibition of swelling at the concentration of 10^-8 M was determined by percentages of swelling of both (A) and (B).

mice = assay: Acute toxicity test in mice by intravenous administration; type: in vivo; settings: dead/treated
Description: For example, in the acute toxicity test in mice by intravenous administration, the mortality of compound of example 1 and 1-3 are 0/6 and 0/6 at the dose of 100 mg/kg and are 6/6 and 4/6 at the dose of 200 mg/kg, respectively.

Structure (SMILES): O=C(c1ccccc1)c1ccc(O[C@H]2CC[C@H](C(=O)O)C2)c(Cl)c1Cl [Example 1, (1S,3S)-3-[(2,3-dichloro-4-benzoyl)phenoxy]cyclopentanecarboxylic acid]
IC50 [1]: 5.5 nM
mortality (mice; 100 mg/kg): 0/6
mortality (mice; 200 mg/kg): 6/6

Structure (SMILES): O=C(c1cccs1)c1ccc(O[C@H]2CC[C@H](C(=O)O)C2)c(Cl)c1Cl [Example 1-3, (1S,3S)-3-[{2,3-dichloro-4-(2-thenoyl)}phenoxy]cyclopentanecarboxylic acid]
IC50 [1]: 2.2 nM
mortality (mice; 100 mg/kg): 0/6
mortality (mice; 200 mg/kg): 4/6

IC50 [1]: 2.6 nM
Structure (SMILES): O=C(c1ccccc1F)c1ccc(O[C@H]2CC[C@H](C(=O)O)C2)c(Cl)c1Cl [Example 1-8, (1S,3S)-3-[{2,3-dichloro-4-(2-fluorobenzoyl)}phenoxy]cyclopentanecarboxylicacid]
inhibition at 0.01 µM [1]: 82%

Structure (SMILES): O=C(c1cccc([N+](=O)[O-])c1)c1ccc(O[C@H]2CC[C@H](C(=O)O)C2)c(Cl)c1Cl [Example 1-12, (1S,3S)-3-[{2,3-dichloro-4-(3-nitrobenzoyl)}phenoxy]cyclopentanecarboxylic acid]
inhibition at 0.01 µM [1]: 52%

Structure (SMILES): O=C(Cc1ccccc1)c1ccc(O[C@H]2CC[C@H](C(=O)O)C2)c(Cl)c1Cl [Example 1-13, (1S,3S)-3-[(2,3-dichloro-4-phenylacetyl)phenoxy]cyclopentanecarboxylic acid]
inhibition at 0.01 µM [1]: 36%

IC50 [1]: 4.1 nM
Structure (SMILES): O=C(c1ccc(O[C@H]2CC[C@H](C(=O)O)C2)c(Cl)c1Cl)c1cccc2ccccc12 [Example 1-19, (1S,3S)-3-[{2,3-dichloro-4-(1-naphthoyl)}phenoxy]cyclopentanecarboxylic acid]
inhibition at 0.01 µM [1]: 90%

Structure (SMILES): Cc1cccc(C(=O)c2ccc(O[C@H]3CC[C@H](C(=O)O)C3)c(Cl)c2Cl)c1 [Example 1-20, (1S,3S)-3-[{2,3-dichloro-4-(3-methylbenzoyl)}phenoxy]cyclopentanecarboxylicacid]
inhibition at 0.01 µM [1]: 78%

IC50 [1]: 3 nM
Structure (SMILES): O=C(c1ccccc1)c1ccc(O[C@H]2CC[C@H](C(=O)O)C2)cc1Cl [Example 1-25, (1S,3S)-3-[(3-chloro-4-benzoyl)phenoxy]cyclopentanecarboxylic acid]
inhibition at 0.01 µM [1]: 100%

Structure (SMILES): O=C(c1ccccc1)c1ccc(O[C@H]2CC[C@H](C(=O)O)C2)c2ccccc12 [Example 4, (1S,3S)-3-(4-benzoyl-1-naphthoxy)cyclopentanecarboxylic acid]
inhibition at 0.01 µM [1]: 41%
